Experimental data: ChEMBL document CHEMBL1153638, “Prolonged stability by cyclization: Macrocyclic phosphino dipeptide isostere inhibitors of beta-secretase (BACE1)” (Bioorg Med Chem Lett, 2009)
pIC50: −log10 of the molar value. Numbered stars: 1 amine (or outer) side, 2 acyl side, 3 side chain; on linkers, the order of the positions; unused ones are H or OH. Square brackets hold non-standard residues; d marks the D form. Peptide text beside a SMILES is read from it. X1 = CC(C)C[C@H](N[*:1])P(=O)(O)C[C@@H](C)C(=O)[*:2]

Key:
[1] = Stability in human serum after 160 mins; assay type: ADME, cell-free; details: read-out: Stability
Beta-secretase 1 [2] = target: T1, Beta-secretase 1 (Homo sapiens, UniProt P56817); test: Inhibition of ectodomain of BACE1 secreted from […] cells by fluorimetry; assay type: cell-based
[3] = Stability in human serum assessed as half life; assay type: ADME, cell-free
Beta-secretase 1 [4] = target: T1, Beta-secretase 1; test: Inhibition of full-domain of BACE1 expressed in […] cells; assay type: cell-based
[5] = Stability in human serum after 120 mins; assay type: ADME, cell-free; details: read-out: Stability

T1 sequence (P56817 whole entry, the tested form may be a part): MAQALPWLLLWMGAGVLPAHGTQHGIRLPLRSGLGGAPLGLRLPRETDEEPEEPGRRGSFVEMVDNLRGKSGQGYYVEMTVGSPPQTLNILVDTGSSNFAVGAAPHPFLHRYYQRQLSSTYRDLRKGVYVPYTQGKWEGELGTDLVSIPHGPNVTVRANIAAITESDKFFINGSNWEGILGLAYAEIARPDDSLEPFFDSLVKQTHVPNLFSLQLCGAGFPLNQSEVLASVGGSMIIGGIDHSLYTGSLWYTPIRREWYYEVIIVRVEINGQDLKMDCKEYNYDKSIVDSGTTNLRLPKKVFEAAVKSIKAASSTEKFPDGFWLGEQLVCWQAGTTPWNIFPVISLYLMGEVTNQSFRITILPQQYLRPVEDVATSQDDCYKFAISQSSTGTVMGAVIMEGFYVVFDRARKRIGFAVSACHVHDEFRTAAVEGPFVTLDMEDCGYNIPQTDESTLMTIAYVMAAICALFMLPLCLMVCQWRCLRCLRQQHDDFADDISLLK

| SMILES | remaining at 160 min [1] | pIC50 (Beta-secretase 1 [2]) | half-life [3] | pIC50 (Beta-secretase 1 [4]) | remaining at 2 h [5] |
| --- | --- | --- | --- | --- | --- |
| CC(CP(=O)(O)C1CCCCCC[C@H](NC(=O)[C@@H](N)CCC(=O)O)C(=O)N[C@@H](CC(=O)O)C(=O)N1)C(=O)N[C@H](C(=O)N[C@@H](CCC(=O)O)C(=O)N[C@@H](Cc1ccccc1)C(=O)O)C(C)C (mixture of isomers; form 1) | 20% | 7.33 | 43.9 min |  |  |
| CC(CP(=O)(O)C1CCCCCC[C@H](NC(=O)[C@@H](N)CCC(=O)O)C(=O)N[C@@H](CC(=O)O)C(=O)N1)C(=O)N[C@H](C(=O)N[C@@H](CCC(=O)O)C(=O)N[C@@H](Cc1ccccc1)C(=O)O)C(C)C (mixture of isomers; form 3) |  | 6.28 |  |  |  |
| CC(CP(=O)(O)C1CCCCCC[C@H](NC(=O)[C@@H](N)CCC(=O)O)C(=O)N[C@@H](CC(=O)O)C(=O)N1)C(=O)N[C@H](C(=O)N[C@@H](CCC(=O)O)C(=O)N[C@@H](Cc1ccccc1)C(=O)O)C(C)C (mixture of isomers; form 2) |  | 6.49 |  |  |  |
| CC(CP(=O)(O)C1CCCCCC[C@H](NC(=O)[C@@H](N)CCC(=O)O)C(=O)N[C@@H](CC(=O)O)C(=O)N1)C(=O)N[C@H](C(=O)N[C@@H](CCC(=O)O)C(=O)N[C@@H](Cc1ccccc1)C(=O)O)C(C)C (mixture of isomers; form 4) |  | 6.09 |  |  |  |
| CC(C)C[C@H](NC(=O)[C@@H](N)CCC(=O)O)C(=O)N[C@@H](CC(=O)O)C(=O)N[C@@H](CC(C)C)P(=O)(O)C[C@@H](C)C(=O)N[C@H](C(=O)N[C@@H](CCC(=O)O)C(=O)N[C@@H](Cc1ccccc1)C(=O)O)C(C)C (H-ELD[X1]VEF-OH) |  |  | 14.8 min | 7.92 | 20% |
